Test results taken from ChEMBL document CHEMBL1142127, “Neuroprotective principles from Gastrodia elata” (J Nat Prod, 2007).
Active and inactive are the calls of the source. The calls are words filed in the database; no cut-off is given here.

Assays:
PC-12 [1] = assay: Prevention of serum deprivation-induced PC12 cell apoptosis at 100 uM by MTT assay; type: functional, Rattus norvegicus
PC-12 [2] = assay: Prevention of serum deprivation-induced PC12 cell apoptosis at > 100 uM by MTT assay; type: functional, cell-based; conditions: Rattus norvegicus
Adenosine receptor A2a = Adenosine receptor A2a (Rattus norvegicus, UniProt P30543); assay: Binding affinity to adenosine A2A receptor in rat brain striatum; type: tissue-based
PC-12 [3] = assay: Prevention of serum deprivation-induced PC12 cell apoptosis by MTT assay; type: functional, cell-based; conditions: Rattus norvegicus

Adenosine receptor A2a, sequence (P30543 whole entry): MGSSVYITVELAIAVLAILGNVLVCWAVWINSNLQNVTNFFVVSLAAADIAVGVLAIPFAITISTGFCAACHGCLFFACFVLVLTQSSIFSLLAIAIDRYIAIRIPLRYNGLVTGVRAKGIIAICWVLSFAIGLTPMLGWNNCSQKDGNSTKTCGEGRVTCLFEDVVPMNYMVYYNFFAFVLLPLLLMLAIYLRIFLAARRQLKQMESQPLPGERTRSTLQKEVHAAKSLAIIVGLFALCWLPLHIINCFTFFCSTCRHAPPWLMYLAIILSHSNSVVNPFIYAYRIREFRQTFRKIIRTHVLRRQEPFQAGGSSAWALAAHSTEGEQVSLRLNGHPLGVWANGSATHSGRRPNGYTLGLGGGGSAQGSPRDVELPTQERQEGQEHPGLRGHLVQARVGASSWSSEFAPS

SMILES: Nc1ncnc2c1ncn2[C@@H]1O[C@H](CO)[C@@H](O)[C@H]1O [ADENOSINE]
- Activity (PC-12 [1]): 80%

SMILES: C[C@H]1O[C@@H](Oc2ccc(COC(=O)CC(O)(CC(=O)OCc3ccc(O[C@@H]4O[C@H](CO)[C@@H](O)[C@H](O)[C@H]4O)cc3)C(=O)Oc3ccc(O[C@H]4O[C@H](CO)[C@@H](O)[C@H](O)[C@H]4O)cc3)cc2)[C@H](O)[C@@H](O)[C@@H]1O (some centres undefined)
- Activity (PC-12 [2]): inactive

SMILES: OCc1ccc(O[C@@H]2O[C@H](CO)[C@@H](O)[C@H](O)[C@H]2O)cc1
- Activity (PC-12 [2]): inactive

SMILES: Oc1ccc(CSCc2ccc(O)cc2)cc1
- IC50 (Adenosine receptor A2a): 42.9 µM
- Ki (Adenosine receptor A2a): 24.1 µM
- EC50 (PC-12 [3]): 7.2 µM

SMILES: OC[C@H]1O[C@@H](n2cnc3c(NCc4ccc(O)cc4)ncnc32)[C@H](O)[C@@H]1O
- IC50 (Adenosine receptor A2a): 4.66 µM
- Ki (Adenosine receptor A2a): 2.62 µM
- EC50 (PC-12 [3]): 0.037 µM
